What was measured:
Type in all cases: cell-based
HBV genotype C = assay: Antiviral activity in HepG2 cells transfected with HBV genotype C plasmid, extracellular HBV DNA qPCR; conditions: Hepatitis B virus, read-out: HBV inhibition EC50 (Mean ± StD)
Procedure: (§1) HepG2 hepatoma cells transfected with HBV plasmids corresponding to the different isolates were used to perform antiviral assay against different HBV genotypes. HBV plasmids were obtained by cloning fragment containing of 1.1-mer HBV genome into the SacI/SaII sites of pcDNA3.1zeo(−) plasmid (V86520, Thermofisher Scientific). The HepG2 cell line was maintained in DMEM, supplemented with 10% of FBS, 1% glutamine and 1% penicillin/streptomycin.
(§2) HBV inhibition activity was determined on different HBV genotypes. For this purpose plasmids pcDNA3.1Zeo(−)-HBV1.1 expressing HBV genotypes A, B, C, D, E were transfected in HepG2 cell line and extracellular HBV quantification was performed by direct qPCR as described above. In detail, cells were seeded at 20,000 cells/well in polylisine coated 96-multiwell plates and 24 h later HBV plasmids were transfected with lipofection using manufacturer's procedure (Lipofectamine 3000 Reagent, Thermofisher Scientific). Five hours after transfection cells were extensively washed with PBS and compounds were added in 8-point dose-response curve in 0.5% DMSO as described above. After 4 days of incubation at 37° C. cells were subjected to cell viability assays and extracellular HBV quantification, in order to evaluate both the cytotoxic potential and the anti-viral activity of compounds, as described above. […]

[1] = test system: HBV (HBeAg, surrogate of cccDNA biogenesis); assay: In vitro HBV infection of HepG2-NTCP cells, extracellular HBeAg ELISA (establishment of HBV cccDNA); conditions: Hepatitis B virus, 144 h, 6 days, read-out: HBeAg* inhibition EC50 (Mean ± StD, μM) *surrogate of cccDNA biogenesis
Excerpt: HepG2-NTCP hepatoma cell line was used to conduct the infection experiments. HepG2-NTCP was obtained by ectopic expression in HepG2 cells of the human Sodium Taurocholate Cotransporting Polypeptide receptor (hNTCP) using a lentiviral vector expressing human NTCP (Seeger et al., Molecular Therapy-Nucleic Acids, 2014). hNTCP was recently identified as HBV receptor (Yan H. et al., Elife. Nov. 13, 2012; 3). The complete viral life cycle of HBV could be obtained in the HepG2-NTCP cell line. HepG2-NTCP cells were maintained in DMEM, supplemented with 10% of FBS, 1% glutamine and 1% penicillin/streptomycin.
The ability of compounds to inhibit the establishment of HBV cccDNA in infected cells was investigated in an in vitro model of HBV infection. For this purpose HepG2-NTCP cell line, engineered to stably express the HBV receptor human sodium taurocholate cotrasporting polypeptide (hNTCP), was used and HBV particles were produced in HepAD38 following standard published procedure (Hepatitis B methods and protocols, Guo H., Cuconati, A.; 2017; Humana press). In detail HepG2-NTCP were seeded at 20.000 cells/well in collagen coated 96 multiwell plates. […] The ability of compounds to inhibit the establishment of HBV cccDNA was evaluated by quantification of extracellular HBeAg with ELISA (Elisa Kit HBE.CE. Manufacturer: DIA.PRO). […]

HBV genotype E = assay: Antiviral activity in HepG2 cells transfected with HBV genotype E plasmid, extracellular HBV DNA qPCR; conditions: Hepatitis B virus, read-out: HBV inhibition EC50 (Mean ± StD)
Procedure: as §1, §2

HBV genotype A = assay: Antiviral activity in HepG2 cells transfected with HBV genotype A plasmid, extracellular HBV DNA qPCR; conditions: Hepatitis B virus, read-out: HBV inhibition EC50 (Mean ± StD)
Procedure: as §1, §2

Q: With `Cc1cc(N)c(S(N)(=O)=O)cc1C(=O)Nc1cc(F)c(F)c(F)c1` [Example E17, 4-amino-2-methyl-5-sulfamoyl-N-(3,4,5-trifluorophenyl)benzamide] as the molecule, how does the EC50 (HBV genotype C) read?
A: 0.0282 ± 0.0108 µM

Q: What about the EC50 [1] of the same molecule?
A: 0.147 µM

Q: And the EC50 (HBV genotype E)?
A: 0.0512 ± 0.0136 µM

Q: And the EC50 (HBV genotype A)?
A: 0.0582 ± 0.0254 µM

Source: patent US20210276967A1 (OSPEDALE SAN RAFFAELE S.R.L., priority 2018, published 2021)
